# Measurements: paper PMC11251039, “Harnessing cholesterol uptake of malaria parasites for therapeutic applications” (EMBO Molecular Medicine, 2024)
# “And” between values parts separate entries of the source, which are not always exact repeats. Equal entries are not always repeated. Where two headings read alike, the source gives them in different places.
# Experiments:
# [1] = tested on: human embryonic kidney cells (HEK293); test: Human embryonic kidney cell viability assay (MTT); format: cell-based; details: Homo sapiens, HEK293, 96 h, read-out: IC50, human embryonic kidney cell inhibition (viability)
# Method in brief: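 HEK293 cells, 5,000 per well, exposed to serially diluted compound for 96 hours; 10 µg/mL cycloheximide as background control. Viability by MTT (0.45 mg/mL, 2 h), SDS solubilisation, absorbance at 570 nm.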
# [2] = tested on: human hepatoma cells (Huh7); test: Human hepatoma viability assay (CellTiter-Blue); format: cell-based; details: Homo sapiens, Huh-7; 48 h, Huh7; read-out: IC50, human hepatoma inhibition (viability)
# Method: Huh7 hepatoma viability assays were conducted in the same manner as the P. berghei assays, with metabolic capacity (indicating viability) measured with a fluorescence microplate reader after incubation with CellTiter-Blue® (Promega) for 3 h.
# Appendix Fraser/Curtis et al. […]
# Human Hepatoma Viability Assays:
# The Huh7 hepatoma cell line (ATCC) was maintained under routine culture conditions in Dulbecco's Modified Eagle Medium (DMEM) containing 3.7 g/L NaHCO3 supplemented with 10% foetal bovine serum (FBS), 100 units/mL penicillin, and 100 μg/mL streptomycin at 37 °C in a humidified 5% CO2 incubator.
# Viability assays were performed in parallel to the P. berghei growth inhibition. 10,000 Huh7 cells were seeded in 96-well and dark-sided microplates (Greiner Bio One) and cultured at 37°C, 5% CO2 and 80% humidity. The next day, the media was replaced with compounds or solvent controls (DMSO) serially diluted in culture media. Media was partially replaced with new drug dilutions over the following two days. After 48 hours, CellTiter-Blue® (Promega) was added according to the manufacturer’s instructions and incubated for 3 hours. Fluorescence intensity was measured with 530/25 ex and 590/20 em in a Synergy HTX plate reader (Agilent).
# [3] = tested on: asexual P. falciparum 3D7 wild-type parasites; test: P. falciparum asexual growth inhibition assay (SYBR Safe DNA replication); format: cell-based, Plasmodium falciparum; details: for P. falciparum asexual growth, percentage of control: replicate values, source data Fig. 2B; for IC90 / IC50: Plasmodium falciparum; for IC50: read-out: IC50, P. falciparum asexual growth inhibition
# Method in brief: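 Sorbitol-synchronised ring-stage cultures at 1% parasitaemia and 1% haematocrit were exposed to 2-fold compound dilutions at 37 °C under microaerophilic conditions for 24, 48 or 72 h. Growth was read by SYBR Safe fluorescence of freeze-thaw lysates, with 200 nM chloroquine or artesunate defining background.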
smiles,measurement,setting,value
"COc1cc(NC(C)CCCN)c2ncccc2c1 (stereo not drawn) [Primaquine, primaquine, reference compound]",IC50,[1],10.6 µM
same,IC50,[2],18.4 µM
same,"P. falciparum asexual growth, percentage of control","[3]; 0.048828130 uM, 24 h",103.5% and 112.3% and 122.3% and 109.6% and 103.8% and 107.6%
same,"P. falciparum asexual growth, percentage of control","[3]; 0.097656250 uM, 24 h",133.8% and 115.8% and 109.7% and 98.88% and 101.1% and 114.9%
same,"P. falciparum asexual growth, percentage of control","[3]; 0.195312500 uM, 24 h",92.88% and 92.1% and 75.42% and 87.41% and 53.27% and 109.2% and 104.7% and 89.49%
same,"P. falciparum asexual growth, percentage of control","[3]; 0.390625000 uM, 24 h",101% and 92.22% and 85.08% and 86.3% and 91.98% and 87.62% and 106.4% and 103.7% and 80.96%
same,"P. falciparum asexual growth, percentage of control","[3]; 0.781250000 uM, 24 h",87.28% and 86.95% and 87.11% and 97.7% and 104.2% and 88.59% and 104.3% and 96.91% and 94.25%
same,"P. falciparum asexual growth, percentage of control","[3]; 1.562500000 uM, 24 h",104.9% and 96.53% and 90.19% and 106.5% and 37.96% and 92.95% and 112.9% and 86.68% and 94.95%
same,"P. falciparum asexual growth, percentage of control","[3]; 3.125000000 uM, 24 h",98.46% and 91.72% and 71.7% and 85.23% and 66.97% and 105.3% and 93.44% and 88.46% and 77.37%
same,"P. falciparum asexual growth, percentage of control","[3]; 6.250000000 uM, 24 h",70.33% and 75.07% and 74.44% and 55.89% and 62.38% and 52.2% and 93.44% and 79.9% and 76.14%
same,"P. falciparum asexual growth, percentage of control","[3]; 12.500000000 uM, 24 h",59.74% and 51.28% and 54.52% and 22.36% and 27.69% and 24.85% and 101.7% and 67.6% and 71.11%
same,"P. falciparum asexual growth, percentage of control","[3]; 25.000000000 uM, 24 h",32.29% and 12.73% and 20.21% and 8.779% and -12.09% and 0.142% and 58.69% and 51.9% and 34.08%
same,"P. falciparum asexual growth, percentage of control","[3]; 50.000000000 uM, 24 h",4.003% and -4.24% and -21.02% and -13.23% and -31.85% and -34.48% and 21.18% and 8.951% and 16.84%
same,IC90,"[3]; 3D7, 24 h",41 µM
same,IC50,"[3]; 3D7, 48 h",6.5 µM
same,IC90,"[3]; 3D7, 72 h",11.4 µM
same,IC50,"[3]; 3D7, 72 h",2.6 µM
same,IC50,"[3]; 3D7, 24 h, starting at ring stages",11.5 µM
